Measurements reported in paper PMC9315372, “Impact of Sub-MIC Eugenol on Klebsiella pneumoniae Biofilm Formation via Upregulation of rcsB” (Frontiers in Veterinary Science, 2022).

Molecular target: T1, RcsB (Klebsiella pneumoniae, UniProt W1DMM9)
T1 construct: expressed and purified earlier in the laboratory
Test: microscale thermophoresis (Monolith NT.[…])
Format: binding

T1 sequence (W1DMM9 entry or part of it): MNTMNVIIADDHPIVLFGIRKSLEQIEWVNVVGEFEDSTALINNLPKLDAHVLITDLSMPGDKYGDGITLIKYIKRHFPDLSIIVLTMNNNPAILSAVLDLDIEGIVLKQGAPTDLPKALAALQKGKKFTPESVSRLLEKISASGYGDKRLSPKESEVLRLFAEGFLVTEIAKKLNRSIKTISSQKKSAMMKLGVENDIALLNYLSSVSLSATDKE

C=CCc1ccc(O)c(OC)c1 [eugenol]
Kd: 53.4 µM
